According to US9809623B2, “α4β7 peptide monomer and dimer antagonists” (Protagonist Therapeutics, Inc., priority 2014, dated 2017):
pIC50: −log10 of the molar value. Like-named read-outs stand apart in the source and are kept apart here. Numbered stars: 1 amine (or outer) side, 2 acyl side, 3 side chain; on linkers, the order of the positions; unused ones are H or OH. Bridge positions count the residues as written; N and C are the ends. Square brackets hold non-standard residues; d marks the D form. Peptide text beside a SMILES is read from it. I, II: the chains in the order shown. X2 = O=C(CCOCCOCCOCCOCCOCCOCCOCCOCCOCCOCCOCCOCCOCCOCCOCCOCCOCCOCCOCCOCCOCCOCCOCCOCCOCCC(=O)[*:2])[*:1]; Phe(4-tBu) = CC(C)(C)c1ccc(C[C@H](N)C(=O)O)cc1; Diglycolyl = O=C(COCC(=O)[*:2])[*:1]; NMeR = CN[C@@H](CCCNC(=N)N)C(=O)O; β3hE = N[C@@H](CCC(=O)O)CC(=O)O; Pen = CC(C)(S)[C@H](N)C(=O)O

Experiments:
α4β1 = α4β1 (Homo sapiens, UniProt P05556+P13612); assay: α4β1-VCAM Cell Adhesion Assay (Jurkat E6.1 human cells); type: cell-based; design: host or cells: Jurkat E6.1 human T cells
Chain of α4β1 (P13612 34-1032): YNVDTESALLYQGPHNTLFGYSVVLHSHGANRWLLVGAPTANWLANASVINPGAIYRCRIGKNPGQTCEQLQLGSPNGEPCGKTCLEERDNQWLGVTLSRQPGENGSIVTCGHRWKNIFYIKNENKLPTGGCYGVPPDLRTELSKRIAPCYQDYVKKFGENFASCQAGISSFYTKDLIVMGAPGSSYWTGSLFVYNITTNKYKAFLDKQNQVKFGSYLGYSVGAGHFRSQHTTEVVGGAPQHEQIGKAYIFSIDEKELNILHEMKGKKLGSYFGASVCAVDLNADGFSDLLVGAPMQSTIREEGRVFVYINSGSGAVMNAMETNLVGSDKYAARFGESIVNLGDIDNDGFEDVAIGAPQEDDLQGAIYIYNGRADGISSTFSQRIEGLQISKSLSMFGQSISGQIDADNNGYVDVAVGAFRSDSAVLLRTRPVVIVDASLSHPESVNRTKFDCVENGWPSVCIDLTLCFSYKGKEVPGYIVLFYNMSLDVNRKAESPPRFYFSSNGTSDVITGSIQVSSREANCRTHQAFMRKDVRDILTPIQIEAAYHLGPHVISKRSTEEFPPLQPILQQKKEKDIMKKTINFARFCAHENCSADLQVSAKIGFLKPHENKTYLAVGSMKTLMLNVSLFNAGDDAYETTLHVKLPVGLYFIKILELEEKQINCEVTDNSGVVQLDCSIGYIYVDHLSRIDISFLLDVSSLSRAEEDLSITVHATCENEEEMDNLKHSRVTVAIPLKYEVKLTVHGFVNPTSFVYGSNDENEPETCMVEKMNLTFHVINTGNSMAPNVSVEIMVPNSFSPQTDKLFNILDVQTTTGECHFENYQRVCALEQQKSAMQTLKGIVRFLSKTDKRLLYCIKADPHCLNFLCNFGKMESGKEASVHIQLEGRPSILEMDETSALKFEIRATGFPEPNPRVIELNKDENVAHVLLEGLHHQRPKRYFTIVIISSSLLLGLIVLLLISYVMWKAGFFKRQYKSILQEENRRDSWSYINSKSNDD
Chain of α4β1 (P05556 21-798): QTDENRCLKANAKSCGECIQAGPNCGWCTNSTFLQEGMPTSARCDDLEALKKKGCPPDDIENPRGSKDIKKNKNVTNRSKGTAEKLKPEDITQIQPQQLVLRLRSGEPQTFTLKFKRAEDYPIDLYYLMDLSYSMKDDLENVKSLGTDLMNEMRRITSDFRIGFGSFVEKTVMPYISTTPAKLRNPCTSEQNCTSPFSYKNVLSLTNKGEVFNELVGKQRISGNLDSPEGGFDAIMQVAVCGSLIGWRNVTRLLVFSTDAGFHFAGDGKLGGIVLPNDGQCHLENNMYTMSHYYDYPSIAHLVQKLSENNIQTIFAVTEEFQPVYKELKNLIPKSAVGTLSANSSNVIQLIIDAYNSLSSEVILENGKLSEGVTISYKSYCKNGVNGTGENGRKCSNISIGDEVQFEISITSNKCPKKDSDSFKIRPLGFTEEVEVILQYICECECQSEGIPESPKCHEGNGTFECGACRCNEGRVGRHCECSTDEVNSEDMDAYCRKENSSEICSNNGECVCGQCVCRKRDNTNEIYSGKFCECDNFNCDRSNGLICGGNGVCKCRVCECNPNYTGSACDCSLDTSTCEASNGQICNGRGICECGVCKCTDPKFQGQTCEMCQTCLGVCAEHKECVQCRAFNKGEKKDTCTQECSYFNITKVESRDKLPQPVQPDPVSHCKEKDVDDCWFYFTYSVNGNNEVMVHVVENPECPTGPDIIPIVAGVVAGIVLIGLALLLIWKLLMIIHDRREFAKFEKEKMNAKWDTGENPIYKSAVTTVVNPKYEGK
Procedure: Jurkat E6.1 human cells (Sigma #88042803) were cultured in RPMI 1640 HEPES medium (Invitrogen #22400-089) supplemented with 10% serum (Fetal Bovine Serum, Invitrogen #16140-071), 1 mM sodium pyruvate (Invitrogen #11360-070), 2 mM L-glutamine (Invitrogen #25030-081) and Penicillin-Streptomycin (Invitrogen #15140-122) at 100 units of penicillin and 100 μg of streptomycin per ml. The cells were washed two times in DMEM medium (ATCC #30-2002) supplemented with 0.1% BSA, 10 mM HEPES pH 7 and 1 mM MnCl2. The cells were re-suspended in supplemented DMEM medium at a density of 4×10^6 cells/ml.
A Nunc MaxiSorp plate was coated with rh VCAM-1/CD106 Fc chimera (R&D #862-VC) at 400 ng per well in 50 ul per well in 1×PBS and incubated at 4° C. overnight. The solution was then removed by shaking, blocked with 250 ul per well PBS containing 1% BSA, and incubated at 37° C. for 1 hr. The solution was removed by shaking. Peptides were diluted by serial dilution in a final volume of 50 ul per well (2× concentration). To each well, 50 ul of cells (200,000 cells) were added and the plate was incubated at 37° C., 5% CO2 for 30-45 min to allow cell adhesion. The wells were washed manually three times (100 ul per wash) with supplemented DMEM. After the final wash, 100 ul/well of supplemented DMEM and 10 ul/well of MTT reagent (ATTC cat#30-1010K) were added. The plate was incubated at 37° C., 5% CO2 for 2-3 hrs until a purple precipitate was visible. 100 ul of Detergent Reagent (ATTC cat#30-1010K) was added to each well. The plate was covered from the light, wrapped in Parafilm to prevent evaporation, and left overnight at room temperature in the dark. The plate was shaken for 5 min and the absorbance at 570 nm was measured. To calculate the dose response, the absorbance value of control wells not containing cells was subtracted from each test well.

α4β7 = target: T1, α4β7 (Mus musculus, UniProt P26011+Q00651); assay: α4β7 Cell Adhesion Assay (Mouse), TK1 cells; type: cell-based
T1 construct: host or cells: TK1 mouse T cells
T1 sequence (Q00651 34-1039 limits assumed): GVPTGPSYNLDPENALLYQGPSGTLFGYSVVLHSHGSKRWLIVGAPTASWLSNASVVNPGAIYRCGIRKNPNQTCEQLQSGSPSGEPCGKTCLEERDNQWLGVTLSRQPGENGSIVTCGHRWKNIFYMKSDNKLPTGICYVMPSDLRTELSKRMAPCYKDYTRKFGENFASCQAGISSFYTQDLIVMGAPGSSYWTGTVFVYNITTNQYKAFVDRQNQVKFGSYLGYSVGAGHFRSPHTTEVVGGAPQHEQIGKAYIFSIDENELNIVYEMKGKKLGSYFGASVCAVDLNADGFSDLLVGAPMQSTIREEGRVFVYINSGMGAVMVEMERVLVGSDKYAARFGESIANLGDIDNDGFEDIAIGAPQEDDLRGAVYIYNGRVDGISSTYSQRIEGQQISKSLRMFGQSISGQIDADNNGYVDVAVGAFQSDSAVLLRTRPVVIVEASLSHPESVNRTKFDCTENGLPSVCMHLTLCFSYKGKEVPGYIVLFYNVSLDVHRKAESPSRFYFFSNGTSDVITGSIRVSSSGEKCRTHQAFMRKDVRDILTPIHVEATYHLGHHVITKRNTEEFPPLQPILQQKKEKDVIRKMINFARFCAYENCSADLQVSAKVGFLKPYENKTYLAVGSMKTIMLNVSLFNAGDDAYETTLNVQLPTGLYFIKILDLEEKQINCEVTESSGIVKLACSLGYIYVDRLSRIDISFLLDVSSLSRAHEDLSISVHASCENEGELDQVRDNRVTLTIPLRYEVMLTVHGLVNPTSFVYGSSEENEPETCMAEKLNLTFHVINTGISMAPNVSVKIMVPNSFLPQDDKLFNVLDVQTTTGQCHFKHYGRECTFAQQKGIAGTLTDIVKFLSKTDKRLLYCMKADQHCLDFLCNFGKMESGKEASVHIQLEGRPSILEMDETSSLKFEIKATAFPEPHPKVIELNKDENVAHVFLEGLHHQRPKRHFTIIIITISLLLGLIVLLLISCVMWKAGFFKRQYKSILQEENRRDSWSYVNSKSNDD
T1 sequence (P26011 20-806): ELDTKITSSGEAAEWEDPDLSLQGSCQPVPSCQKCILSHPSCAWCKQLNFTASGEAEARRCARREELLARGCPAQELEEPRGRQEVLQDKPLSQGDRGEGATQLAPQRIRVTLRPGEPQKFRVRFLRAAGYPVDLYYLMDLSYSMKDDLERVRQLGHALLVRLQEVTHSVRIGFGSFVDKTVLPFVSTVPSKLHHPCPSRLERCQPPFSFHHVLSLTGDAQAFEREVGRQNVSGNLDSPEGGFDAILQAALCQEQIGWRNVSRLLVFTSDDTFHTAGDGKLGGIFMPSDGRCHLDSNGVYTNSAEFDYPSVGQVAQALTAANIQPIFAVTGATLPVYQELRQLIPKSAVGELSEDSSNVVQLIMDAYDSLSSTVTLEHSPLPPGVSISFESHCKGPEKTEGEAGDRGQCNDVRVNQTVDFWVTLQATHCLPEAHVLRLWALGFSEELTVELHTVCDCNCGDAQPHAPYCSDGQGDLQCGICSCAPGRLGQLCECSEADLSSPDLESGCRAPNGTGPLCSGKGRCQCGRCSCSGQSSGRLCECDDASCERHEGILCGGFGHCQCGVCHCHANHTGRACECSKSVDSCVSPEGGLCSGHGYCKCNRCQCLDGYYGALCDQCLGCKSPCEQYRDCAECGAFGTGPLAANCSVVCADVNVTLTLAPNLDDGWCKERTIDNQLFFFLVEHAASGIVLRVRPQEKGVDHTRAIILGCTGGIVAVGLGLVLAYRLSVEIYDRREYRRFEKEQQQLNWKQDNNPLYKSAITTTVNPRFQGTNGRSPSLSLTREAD
Procedure: TK1 cells (ATCC # ATCC-CRL-2396) were cultured in RPMI 1640 with 2 mM L-glutamine adjusted to contain 1.5 g/L sodium bicarbonate, 4.5 g/L glucose, 10 mM HEPES, and 1.0 mM sodium pyruvate (ATCC#30-2001) and supplemented with 0.1 mM non-essential amino acids, (ATCC #30-2116) 0.05 mM 2-mercaptoethanol (Invitrogen #21985) and 10% serum (Fetal Bovine Serum, Invitrogen #16140-071), and Penicillin-Streptomycin (Invitrogen #15140-122) at 100 units of penicillin and 100 μg of streptomycin per ml. The cells were washed two times in DMEM medium (ATCC #30-2002) supplemented with 0.1% BSA, 10 mM HEPES pH 7 and 1 mM MnCl2. The cells were re-suspended in supplemented DMEM medium at a density of 4×10^6 cells/ml.
A Nunc MaxiSorp plate was coated with Recombinant human MAdCAM-1 Fc Chimera (R&D #6065-MC) at 200 ng per well in 100 μl per well in 1×PBS and incubated at 4° C. overnight. The solution was then removed by shaking, blocked with 250 ul per well PBS containing 1% BSA, and incubated at 37° C. for 1 hr. The solution was removed by shaking. DATK 32 (anti-mouse α4β7) and peptides were diluted by serial dilution in a final volume of 50 ul per well (2× concentration). To each well, 50 ul of cells (200,000 cells) are added and the plate is incubated at 37° C., 5% CO2 for 30-45 min to allow cell adhesion. The plate was manually washed three times with supplemented DMEM, 100 ul per wash. After the final wash, 100 ul/well of supplemented DMEM and […] of MTT reagent (ATTC cat#30-1010K) was added to each well. Wells were incubated at 37° C. with 5% CO2 for 2-3 hrs until purple precipitate was visible. 100 μl of Detergent Reagent (ATTC cat#30-1010K) was added to each well. The plate was then wrapped with Para film to prevent evaporation, and left overnight at room temperature in the dark. The plate was shaken for 5 min and the absorbance at 570 nm was measured. To calculate the dose response, the absorbance value of control wells not containing cells was subtracted from each test well.

[1] = Table 3-B, Selectivity (α4β1), range classes, read-out: α4β1 cell IC50
[2] = Table 3-B, Potency (α4β7), range classes, read-out: α4β7 cell(MU) IC50
[3] = Table 4-B, read-out: Cell Adhesion α4β1 IC50

CC(=O)N[C@@H]1C(=O)N(C)[C@@H](CCCNC(=N)N)C(=O)N[C@@H](CO)C(=O)N[C@@H](CC(=O)O)C(=O)N[C@@H]([C@@H](C)O)C(=O)N[C@@H](CC(C)C)C(=O)N[C@H](C(=O)N[C@@H](Cc2c[nH]c3ccccc23)C(=O)N[C@@H](CCC(=O)O)C(=O)N[C@H](CCCCNC(=O)COCC(=O)NCCCC[C@@H](NC(=O)[C@H](CCC(=O)O)NC(=O)[C@H](Cc2c[nH]c3ccccc23)NC(=O)[C@H]2NC(=O)[C@H](CC(C)C)NC(=O)[C@H]([C@@H](C)O)NC(=O)[C@H](CC(=O)O)NC(=O)[C@H](CO)NC(=O)[C@H](CCCNC(=N)N)N(C)C(=O)[C@@H](NC(C)=O)C(C)(C)SSC2(C)C)C(N)=O)C(N)=O)C(C)(C)SSC1(C)C [compound 67] (I: Ac-[Pen][NMeR]SDTL[Pen]WE[dK]-NH2 / II: Ac-[Pen][NMeR]SDTL[Pen]WE[dK]-NH2; disulfide I:1-I:7, II:1-II:7; linker I:10-II:10 via Diglycolyl)
pIC50 (α4β1; [1]): < 4.00
pIC50 (α4β7; [2]): > 8.00

CC(=O)N[C@@H]1C(=O)N(C)[C@@H](CCCNC(=N)N)C(=O)N[C@@H](CO)C(=O)N[C@@H](CC(=O)O)C(=O)N[C@@H]([C@@H](C)O)C(=O)N[C@@H](CC(C)C)C(=O)N[C@H](C(=O)N[C@@H](Cc2c[nH]c3ccccc23)C(=O)N[C@H](CCC(=O)O)C(=O)N[C@H](CCCCNC(=O)COCC(=O)NCCCC[C@@H](NC(=O)[C@@H](CCC(=O)O)NC(=O)[C@H](Cc2c[nH]c3ccccc23)NC(=O)[C@H]2NC(=O)[C@H](CC(C)C)NC(=O)[C@H]([C@@H](C)O)NC(=O)[C@H](CC(=O)O)NC(=O)[C@H](CO)NC(=O)[C@H](CCCNC(=N)N)N(C)C(=O)[C@@H](NC(C)=O)C(C)(C)SSC2(C)C)C(N)=O)C(N)=O)C(C)(C)SSC1(C)C [compound 68] (I: Ac-[Pen][NMeR]SDTL[Pen]W[dE][dK]-NH2 / II: Ac-[Pen][NMeR]SDTL[Pen]W[dE][dK]-NH2; disulfide I:1-I:7, II:1-II:7; linker I:10-II:10 via Diglycolyl)
pIC50 (α4β1; [1]): < 4.00
pIC50 (α4β7; [2]): > 8.00

CC(=O)N[C@@H]1C(=O)N(C)[C@@H](CCCNC(=N)N)C(=O)N[C@@H](CO)C(=O)N[C@@H](CC(=O)O)C(=O)N[C@@H]([C@@H](C)O)C(=O)N[C@@H](CC(C)C)C(=O)N[C@H](C(=O)N[C@@H](Cc2c[nH]c3ccccc23)C(=O)N[C@@H](CCC(=O)O)C(=O)N[C@H](CCCCNC(=O)COCC(=O)NCCCC[C@@H](NC(=O)[C@H](CCC(=O)O)NC(=O)[C@H](Cc2c[nH]c3ccccc23)NC(=O)[C@H]2NC(=O)[C@H](CC(C)C)NC(=O)[C@H]([C@@H](C)O)NC(=O)[C@H](CC(=O)O)NC(=O)[C@H](CO)NC(=O)[C@H](CCCNC(=N)N)N(C)C(=O)[C@@H](NC(C)=O)C(C)(C)SSC2(C)C)C(=O)O)C(=O)O)C(C)(C)SSC1(C)C [compound 78] (I: Ac-[Pen][NMeR]SDTL[Pen]WE[dK]-OH / II: Ac-[Pen][NMeR]SDTL[Pen]WE[dK]-OH; disulfide I:1-I:7, II:1-II:7; linker I:10-II:10 via Diglycolyl)
pIC50 (α4β1; [1]): < 4.00
pIC50 (α4β7; [2]): > 8.00

CC(=O)N[C@@H]1C(=O)N(C)[C@@H](CCCNC(=N)N)C(=O)N[C@@H](CO)C(=O)N[C@@H](CC(=O)O)C(=O)N[C@@H]([C@@H](C)O)C(=O)N[C@@H](CC(C)C)C(=O)N[C@H](C(=O)N[C@@H](Cc2ccc(C(C)(C)C)cc2)C(=O)N[C@@H](CCC(=O)O)CC(=O)N[C@H](CCCCNC(=O)COCC(=O)NCCCC[C@@H](NC(=O)C[C@H](CCC(=O)O)NC(=O)[C@H](Cc2ccc(C(C)(C)C)cc2)NC(=O)[C@H]2NC(=O)[C@H](CC(C)C)NC(=O)[C@H]([C@@H](C)O)NC(=O)[C@H](CC(=O)O)NC(=O)[C@H](CO)NC(=O)[C@H](CCCNC(=N)N)N(C)C(=O)[C@@H](NC(C)=O)C(C)(C)SSC2(C)C)C(N)=O)C(N)=O)C(C)(C)SSC1(C)C [compound 132] (I: Ac-[Pen][NMeR]SDTL[Pen][Phe(4-tBu)][β3hE][dK]-NH2 / II: Ac-[Pen][NMeR]SDTL[Pen][Phe(4-tBu)][β3hE][dK]-NH2; disulfide I:1-I:7, II:1-II:7; linker I:10-II:10 via Diglycolyl)
pIC50 (α4β1; [1]): < 4.00
pIC50 (α4β7; [2]): > 8.00

CC(=O)N[C@H]1CSSC[C@@H](C(=O)NCC(=O)N[C@@H](CCC(=O)O)C(=O)N[C@@H](CCCCN)C(N)=O)NC(=O)[C@H](CC(C)C)NC(=O)[C@H]([C@@H](C)O)NC(=O)[C@H](CC(=O)O)NC(=O)[C@H](CO)NC(=O)[C@H](CCCNC(=N)N)NC1=O [compound 196, Ac-C-R-S-D-T-L-C-G-E-K-NH2] (Ac-CRSDTLCGEK-NH2; disulfide 1-7)
pIC50 (α4β1; [3]): < 4.00

CC(=O)N[C@H]1CSSC[C@@H](C(=O)NCC(=O)N[C@@H](CCC(=O)O)C(=O)N[C@@H](CCCCNC(=O)CCOCCOCCOCCOCCOCCOCCOCCOCCOCCOCCOCCOCCOCCOCCOCCOCCOCCOCCOCCOCCOCCOCCOCCOCCOCCC(=O)NCCCC[C@H](NC(=O)[C@H](CCC(=O)O)NC(=O)CNC(=O)[C@@H]2CSSC[C@H](NC(C)=O)C(=O)N[C@@H](CCCNC(=N)N)C(=O)N[C@@H](CO)C(=O)N[C@@H](CC(=O)O)C(=O)N[C@@H]([C@@H](C)O)C(=O)N[C@@H](CC(C)C)C(=O)N2)C(N)=O)C(N)=O)NC(=O)[C@H](CC(C)C)NC(=O)[C@H]([C@@H](C)O)NC(=O)[C@H](CC(=O)O)NC(=O)[C@H](CO)NC(=O)[C@H](CCCNC(=N)N)NC1=O [compound 197, (Ac-C-R-S-D-T-L-C-G-E-K-NH2)2-PEG25] (I: Ac-CRSDTLCGEK-NH2 / II: Ac-CRSDTLCGEK-NH2; disulfide I:1-I:7, II:1-II:7; linker I:10-II:10 via X2)
pIC50 (α4β1; [3]): < 4.00

CC(=O)N[C@@H]1C(=O)N(C)[C@@H](CCCNC(=N)N)C(=O)N[C@@H](CO)C(=O)N[C@@H](CC(=O)O)C(=O)N[C@@H]([C@@H](C)O)C(=O)N[C@@H](CC(C)C)C(=O)N[C@H](C(=O)N[C@@H](Cc2c[nH]c3ccccc23)C(=O)N[C@@H](CCC(=O)O)CC(=O)N[C@H](CCCCNC(=O)COCC(=O)NCCCC[C@@H](NC(=O)C[C@H](CCC(=O)O)NC(=O)[C@H](Cc2c[nH]c3ccccc23)NC(=O)[C@H]2NC(=O)[C@H](CC(C)C)NC(=O)[C@H]([C@@H](C)O)NC(=O)[C@H](CC(=O)O)NC(=O)[C@H](CO)NC(=O)[C@H](CCCNC(=N)N)N(C)C(=O)[C@@H](NC(C)=O)C(C)(C)SSC2(C)C)C(N)=O)C(N)=O)C(C)(C)SSC1(C)C [compound 213, [Ac-Pen-(N-Me-Arg)-Ser-Asp-Thr-Leu-Pen-Trp-(β-homoGlu)-(D-Lys)-NH2]2-DIG] (I: Ac-[Pen][NMeR]SDTL[Pen]W[β3hE][dK]-NH2 / II: Ac-[Pen][NMeR]SDTL[Pen]W[β3hE][dK]-NH2; disulfide I:1-I:7, II:1-II:7; linker I:10-II:10 via Diglycolyl)
pIC50 (α4β1; [3]): < 4.00
pIC50 (α4β7; Table 4-B, read-out: Cell Adhesion α4β7 Mouse IC50): 8.38
